Experimental data from patent US20050054696A1, “Indole compounds and medicinal use thereof” (priority 2001, published 2005).

Each compound was assayed against T1, recombinant human liver glycogen phosphorylase (HLGPa) (Homo sapiens, UniProt P06737) (assay: Measurement of liver glycogen phosphorylase activity (enzyme inhibitory activity against HLGPa)). Settings: Sf9 cell lysate expressing recombinant enzyme; reverse reaction (glycogen synthesis from G1-P), phosphate by malachite green, 60 min room temperature.
T1 construct: made in house; host or cells: Sf9 insect cells (unpurified cell lysate used as enzyme solution)
T1 sequence (P06737 1-847): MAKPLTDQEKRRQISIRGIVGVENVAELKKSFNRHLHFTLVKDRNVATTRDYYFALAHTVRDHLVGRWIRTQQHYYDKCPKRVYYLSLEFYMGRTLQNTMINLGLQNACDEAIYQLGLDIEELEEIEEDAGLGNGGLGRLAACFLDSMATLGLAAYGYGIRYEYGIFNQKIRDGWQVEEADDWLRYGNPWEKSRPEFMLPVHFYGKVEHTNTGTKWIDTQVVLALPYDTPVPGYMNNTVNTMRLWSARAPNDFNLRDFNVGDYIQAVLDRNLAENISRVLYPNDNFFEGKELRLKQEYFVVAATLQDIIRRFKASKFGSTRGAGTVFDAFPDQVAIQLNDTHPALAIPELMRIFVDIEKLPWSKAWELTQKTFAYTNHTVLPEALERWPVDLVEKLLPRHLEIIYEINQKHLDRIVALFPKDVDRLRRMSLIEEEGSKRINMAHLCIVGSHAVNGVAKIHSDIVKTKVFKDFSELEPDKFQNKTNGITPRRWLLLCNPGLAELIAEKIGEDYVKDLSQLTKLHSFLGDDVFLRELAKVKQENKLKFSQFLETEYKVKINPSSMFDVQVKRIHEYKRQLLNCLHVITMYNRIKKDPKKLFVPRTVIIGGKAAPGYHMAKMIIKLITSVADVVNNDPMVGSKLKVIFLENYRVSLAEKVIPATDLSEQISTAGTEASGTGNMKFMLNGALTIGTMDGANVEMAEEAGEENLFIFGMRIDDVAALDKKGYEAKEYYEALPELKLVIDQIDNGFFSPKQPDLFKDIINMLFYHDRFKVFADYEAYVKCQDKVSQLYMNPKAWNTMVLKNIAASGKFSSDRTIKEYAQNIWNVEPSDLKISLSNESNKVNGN
Assay type: biochemical
Method in brief: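 Activity was run in the reverse, glycogen-synthesis direction, using Sf9 lysate expressing recombinant human liver glycogen phosphorylase (enzyme solution 80 μg/mL protein, pH 7.0). Substrate solution was Tris pH 7.2 with 1.25 mM glucose-1-phosphate, 2.5 mg/ml glycogen and 7.5 mM glucose, reacted 60 min at room temperature. Released phosphate was measured by malachite green A650, with % inhibition taken against DMSO control and no-enzyme blank.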
`O=C(Nc1ccccc1C(=O)NNC(=O)c1cc2cc(Cl)ccc2[nH]1)Oc1ccccc1` [Example 1-109, phenyl (2-(2-(5-chloro-1H-indole-2-carbonyl)hydrazinocarbonyl)phenyl)carbamate] showed an IC50 of 140 nM. For `O=C(Nc1ccccc1C(=O)NNC(=O)c1cc2cc(Cl)ccc2[nH]1)OCc1ccccc1` [Example 1-110, benzyl (2-(2-(5-chloro-1H-indole-2-carbonyl)hydrazinocarbonyl)phenyl)carbamate], the IC50 was 35 nM. With `O=C(Nc1ccccc1C(=O)NNC(=O)c1cc2cc(Cl)ccc2[nH]1)OCCCO` [Example 1-112, 3-hydroxypropyl (2-(2-(5-chloro-1H-indole-2-carbonyl)hydrazinocarbonyl)phenyl)carbamate] the IC50 was 28 nM. `CN(NC(=O)c1cc2cc(Cl)ccc2[nH]1)C(=O)C1CCCCC1` [Example 1-116, cyclohexanecarboxylic acid 2-(5-chloro-1H-indole-2-carbonyl)-1-methylhydrazide] showed an IC50 of 41 nM. `O=C(NNC(=O)c1cc2cc([N+](=O)[O-])ccc2[nH]1)c1ccccc1` [Example 1-122, benzoic acid 2-(5-nitro-1H-indole-2-carbonyl)hydrazide] was tested, and the IC50 was over 100 nM. With `O=C(NNC(=O)c1cc2cc(OCc3ccccc3)ccc2[nH]1)c1ccccc1` [Example 1-123, benzoic acid 2-(5-benzyloxy-1H-indole-2-carbonyl)hydrazide] the IC50 was over 100 nM. For `O=C(NNC(=O)c1cc2ccc(Cl)cc2[nH]1)c1ccccc1` [Example 1-124, benzoic acid 2-(6-chloro-1H-indole-2-carbonyl)hydrazide], the IC50 was over 100 nM. `O=C(NNC(=O)c1cc2ccsc2[nH]1)c1cc2cc(Cl)ccc2[nH]1` [Example 1-125, 6H-thieno[2,3-b]pyrrole-5-carboxylic acid 2-(5-chloro-1H-indole-2-carbonyl)hydrazide] gave an IC50 of 190 nM. In the case of `N=C(NNC(=O)c1cc2cc(Cl)ccc2[nH]1)c1cccc(F)c1` [Example 1-127, 5-chloro-1H-indole-2-carboxylic acid 2-((3-fluorophenyl)-imino-methyl)hydrazide], the IC50 is reported as 84 nM. Work on `N=C(NNC(=O)c1cc2cc(Cl)ccc2[nH]1)c1ccc(F)cc1` [Example 1-128, 5-chloro-1H-indole-2-carboxylic acid 2-((4-fluorophenyl)-imino-methyl)hydrazide] yielded an IC50 of 33 nM. `Cc1ccc(C(=N)NNC(=O)c2cc3cc(Cl)ccc3[nH]2)cc1` [Example 1-129, 5-chloro-1H-indole-2-carboxylic acid 2-(imino-(p-tolyl)-methyl)hydrazide] gave an IC50 of 59 nM. For `N=C(NNC(=O)c1cc2cc(Cl)ccc2[nH]1)c1cccc(F)c1` [Example 1-132, 5-chloro-1H-indole-2-carboxylic acid 2-((3-fluorophenyl)-imino-methyl)hydrazide], the IC50 was 110 nM. Compound `Cc1ccccc1C(=N)NNC(=O)c1cc2cc(Cl)ccc2[nH]1` [Example 1-133, 5-chloro-1H-indole-2-carboxylic acid 2-(imino-(o-tolyl)-methyl)hydrazide] has an IC50 of 50 nM. `N=C(NNC(=O)c1cc2cc(Cl)ccc2[nH]1)c1ccccn1` [Example 1-136, 5-chloro-1H-indole-2-carboxylic acid 2-(imino-(pyridin-2-yl)-methyl)hydrazide] was tested, and the IC50 was 270 nM. With `N=C(NNC(=O)c1cc2cc(Cl)ccc2[nH]1)c1ccco1` [Example 1-137, 5-chloro-1H-indole-2-carboxylic acid 2-((furan-2-yl)-imino-methyl)hydrazide] the IC50 was 330 nM. For `N=C(NNC(=O)c1cc2cc(Cl)ccc2[nH]1)c1c(F)cccc1Cl` [Example 1-138, 5-chloro-1H-indole-2-carboxylic acid 2-((2-chloro-6-fluorophenyl)-imino-methyl)hydrazide], the IC50 was 460 nM. Compound `N=C(NNC(=O)c1cc2cc(Cl)ccc2[nH]1)c1ccccc1C(F)(F)F` [Example 1-139, 5-chloro-1H-indole-2-carboxylic acid 2-(imino-(2-trifluoromethylphenyl)-methyl)hydrazide] has an IC50 of 380 nM. In the case of `N=C(NNC(=O)c1cc2cc(Cl)ccc2[nH]1)c1cnccn1` [Example 1-140, 5-chloro-1H-indole-2-carboxylic acid 2-(imino-(pyrazin-2-yl)-methyl)hydrazide], the IC50 is reported as 180 nM. `Cc1nc(C(=O)NNC(=O)c2cc3cc(Cl)ccc3[nH]2)c(N)s1` [Example 1-143, 5-amino-2-methylthiazole-4-carboxylic acid 2-(5-chloro-1H-indole-2-carbonyl)hydrazide] showed an IC50 of 120 nM. `O=C(Nn1c(=O)[nH]c2ccccc2c1=O)c1cc2cc(Cl)ccc2[nH]1` [Example 2, N-(1,2,3,4-tetrahydro-2,4-dioxoquinazolin-3-yl)-5-chloro-1H-indole-2-carboxamide] gave an IC50 of 16 nM. Compound `O=C(Nn1c(=O)oc2ccccc2c1=O)c1cc2cc(Cl)ccc2[nH]1` [Example 2-2, N-(1,2,3,4-tetrahydro-2,4-dioxobenzo[e][1,3]oxazin-3-yl)-5-chloro-1H-indole-2-carboxamide] has an IC50 of 71 nM. `CC(C)c1ccc2[nH]c(C(=O)Nn3c(=O)[nH]c4ccccc4c3=O)cc2c1` [Example 2-9, 5-isopropyl-1H-indole-2-carboxylic acid (1,2,3,4-tetrahydro-2,4-dioxoquinazolin-3-yl)amide] gave an IC50 of over 100 nM. `CC(C)c1ccc2[nH]c(C(=O)Nn3c(=O)[nH]c4cc(F)ccc4c3=O)cc2c1` [Example 2-10, 5-isopropyl-1H-indole-2-carboxylic acid (7-fluoro-1,2,3,4-tetrahydro-2,4-dioxoquinazolin-3-yl)amide] was tested, and the IC50 was over 100 nM. For `O=C(Nn1c(=O)[nH]c2ccccc2c1=O)c1cc2cc(F)ccc2[nH]1` [Example 2-11, 5-fluoro-1H-indole-2-carboxylic acid (1,2,3,4-tetrahydro-2,4-dioxoquinazolin-3-yl)amide], the IC50 was over 100 nM. In the case of `O=C(Nn1c(=O)[nH]c2ccccc2c1=O)c1cc2ccc(Cl)cc2[nH]1` [Example 2-12, 6-chloro-1H-indole-2-carboxylic acid (1,2,3,4-tetrahydro-2,4-dioxoquinazolin-3-yl)amide], the IC50 is reported as 440 nM. `Nc1ccc2[nH]c(=O)n(NC(=O)c3cc4cc(Cl)ccc4[nH]3)c(=O)c2c1` [Example 2-16, 5-chloro-1H-indole-2-carboxylic acid (6-amino-1,2,3,4-tetrahydro-2,4-dioxoquinazolin-3-yl)amide] was tested, and the IC50 was 110 nM. Work on `O=C(Nn1c(=O)[nH]c2ccc(Cl)cc2c1=O)c1cc2cc(Cl)ccc2[nH]1` [Example 2-18, 5-chloro-1H-indole-2-carboxylic acid (6-chloro-1,2,3,4-tetrahydro-2,4-dioxoquinazolin-3-yl)amide] yielded an IC50 of 40 nM. For `O=C(Nn1c(=O)[nH]c2cc(Cl)ccc2c1=O)c1cc2cc(Cl)ccc2[nH]1` [Example 2-19, 5-chloro-1H-indole-2-carboxylic acid (7-chloro-1,2,3,4-tetrahydro-2,4-dioxoquinazolin-3-yl)amide], the IC50 was 91 nM. `O=C(Nn1c(=O)[nH]c2c(Cl)cccc2c1=O)c1cc2cc(Cl)ccc2[nH]1` [Example 2-20, 5-chloro-1H-indole-2-carboxylic acid (8-chloro-1,2,3,4-tetrahydro-2,4-dioxoquinazolin-3-yl)amide] showed an IC50 of 22 nM. `O=C(O)Cn1c(=O)n(NC(=O)c2cc3cc(Cl)ccc3[nH]2)c(=O)c2ccccc21` [Example 2-21, 2-(3-((5-chloro-1H-indole-2-carbonyl)amino)-1,2,3,4-tetrahydro-2,4-dioxoquinazolin-1-yl)acetic acid] gave an IC50 of over 100 nM. For `COC(=O)Cn1c(=O)n(NC(=O)c2cc3cc(Cl)ccc3[nH]2)c(=O)c2ccccc21` [Example 2-22, 2-(3-((5-chloro-1H-indole-2-carbonyl)amino)-1,2,3,4-tetrahydro-2,4-dioxoquinazolin-1-yl)acetic acid methyl ester], the IC50 was 31 nM. `CCc1ccc2[nH]c(C(=O)Nn3c(=O)[nH]c4ccccc4c3=O)cc2c1` [Example 2-25, 5-ethyl-1H-indole-2-carboxylic acid (1,2,3,4-tetrahydro-2,4-dioxoquinazolin-3-yl)amide] showed an IC50 of over 100 nM. Work on `Cc1ccc2[nH]c(C(=O)Nn3c(=O)[nH]c4cc(F)c(F)cc4c3=O)cc2c1` [Example 2-26, 5-methyl-1H-indole-2-carboxylic acid (6,7-difluoro-1,2,3,4-tetrahydro-2,4-dioxoquinazolin-3-yl)amide] yielded an IC50 of 210 nM. Work on `COc1ccc2[nH]c(=O)n(NC(=O)c3cc4cc(C)ccc4[nH]3)c(=O)c2c1` [Example 2-27, 5-methyl-1H-indole-2-carboxylic acid (1,2,3,4-tetrahydro-6-methoxy-2,4-dioxoquinazolin-3-yl)amide] yielded an IC50 of 300 nM.
